Measurements as given in patent publication US5620864A, “Acceptor for fucosyl transferase” (Health Research, Inc., priority 1992, dated 1997).
Several values for one entry are separate records, joined by “and”; a condition that tells them apart may be missing. Identical values can stand only once.

What was measured:
[1] = molecular target: T1, serum α1,3-L-fucosyltransferase (Homo sapiens, UniProt P51993); test: Detection of serum α1,3-L-fucosyltransferase in six ovarian cancer sera and one normal serum; assay type: biochemical; conditions: for percentage of the ratio between the CPM obtained for cancer serum and normal serum: acceptor 0.30 mM; for α1,3 fucosyltransferase activity of the cancer sera as compared to the normal serum: range over six ovarian cancer sera, acceptor 0.3 mM
T1 construct: Sera were collected from healthy females and ovarian cancer patients; from tissue; host or cells: blood serum of ovarian cancer patients and healthy females
T1 sequence (P51993 35-359 limits assumed): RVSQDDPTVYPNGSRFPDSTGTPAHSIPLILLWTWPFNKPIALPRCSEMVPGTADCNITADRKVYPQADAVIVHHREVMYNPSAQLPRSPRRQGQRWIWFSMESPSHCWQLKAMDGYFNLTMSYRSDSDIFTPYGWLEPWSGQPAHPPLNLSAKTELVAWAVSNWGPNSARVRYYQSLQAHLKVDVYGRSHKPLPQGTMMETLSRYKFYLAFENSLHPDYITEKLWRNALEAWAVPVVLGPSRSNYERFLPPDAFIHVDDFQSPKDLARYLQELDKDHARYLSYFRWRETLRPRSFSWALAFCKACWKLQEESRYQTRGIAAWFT
Procedure: Sera were collected from healthy females and ovarian cancer patients admitted to Roswell Park Cancer Institute in Buffalo, N.Y., USA. Ovarian tumor tissues were obtained during surgical procedures from patients with ovarian cancer. Both sera and tissues were stored frozen at -70° C. until use.
(§1) An incubation mixture contained 50 mM HEPES-NaOH, pH 7.5, 5 mM MnC12, 7 mM ATP, 3 mM NaN3, the acceptor 0.3 mM (for serum enzyme) or 3.0 mM (for tumor enzyme), 0.125 μCi of GDP-[U-^14 C] Fuc (Sp. Act. 216 mCi/mmol) and enzyme in a total volume of 0.10 ml; the control incubation mixture had everything except the acceptor. At the end of incubation at 37° C. for 18 h, the mixture was diluted with 1 ml water and passed through Dowex-1-C1 column (1 ml in a Pasteur pipet). The column was washed twice with 1 ml water; the breakthrough and wash, which contained the [^14 C] fucosylated neutral acceptor, were collected together in a scintillation vial and counted for radioactivity using the scintillation coctail 3a70 (Research Products International, Mount Prospects, Ill.) and Beckman LS9000. The Dowex column was then eluted successively with 3 ml each of 0.1M and 0.2M NaCl; these eluates which contained the [^14 C] fucosylated sulfated acceptors, were counted for radioactivity as before. Corrections were made by subtracting the radioactivity in the water and NaCl eluates of the control incubation mixture from the corresponding test fractions. The duplicate runs of samples gave almost identical values, the difference being <5%.
The superiority of 3'-sulfo LacNAc over 2'-methyl LacNAc as the substrate for measuring serum α1,3 fucosyltransferase was tested in three different ways. First, the incubation mixtures in duplicate contained 0.3 mM 3'-sulfo LacNAc and varying amounts of 2'-methyl LacNAc (0 to 7.5 mM); the incorporation of [^14 C] fucose by the serum enzyme into both substrates was measured (Table III). The incorporation of [^14 C] fucose into 3'-sulfo LacNAc decreased and into 2'-methyl LacNAc increased with the increase in the concentration of the latter. […] 25 fold less than 2' methyl LacNAc. Secondly, the incubation mixtures in duplicate contained 3.0 mM 2'-methyl LacNAc and varying amounts of 3'-sulfo LacNAc (0 to 0.75 mM); the incorporation of [^14 C] fucose by the same serum enzyme into both substrates was measured (Table III). The [^14 C] fucose incorporation into 2'-methyl LacNAc decreased and into 3'-sulfo LacNAc increased by increasing the concentration of the latter. […] Thirdly, both 2'-methyl LacNAc and 3'-sulfo LacNAc at 0.3 mM concentration were incubated separately in duplicates with six ovarian cancer sera and one normal serum; the incorporation of [^14 C] fucose into these acceptors were quantitated (Table IV). The [^14 C] fucose incorporation into 3'-sulfo LacNAc was consistently higher (4-5 fold) than that into 2'-methyl LacNAc, including the assay of the normal serum. […] These values indicate that 3'-sulfo LacNAc is a very high affinity acceptor for α1,3 fucosyltransferase. The [^14 C] fucosylated product arising from 3'-sulfo LacNAc has been tentatively identified as 3'-sulfo, 3-fucosyl LacNAc by comparing strictly its mobility on paper with the synthetic authentic compound 3'-sulfo, 3-fucosyl LacNAc (see FIG. 5).

[2] = test system: α1,3-L-fucosyltransferase of the soluble fraction of human ovarian tumor; test: Assay of α1,3-fucosyltransferase with synthetic acceptors, partially purified enzyme of ovarian tumor soluble fraction; assay type: biochemical; conditions: for [14C] Fucose Incorporated (CPM): acceptor 3.0 mM, 37° C. 18 h
Procedure: as §1
As shown in the scheme set forth in FIG. 2, the α-L-fucosidase-free extract of the tissue (40 g), after concentration by 80% (NH4)2 SO4 precipitation was fractionated on bovine IgG glycopep-Sepharose in batches of 25 ml. After washing the column with the equilibration buffer, the bound enzyme was eluted with 1 M NaCl in the same buffer. The protein positive fractions were pooled and processed as shown in the scheme 2.0 ml of the above preparation was loaded on a Sephacryl S-200 column (Superfine:2.6 cm×88.0 cm) equilibrated at 4° C. with 50 mM Tris-HC1, pH 7.0 containing 0.15M NaCl and 0.1% Triton X-100 and eluted with the same buffer. Fractions of 3.0 ml were collected. The fucosyltransferase activity was located in the effluent fractions, by assaying first every 5th fraction and then obtaining the activity profile by assaying the alternate fractions in that range, using 2'-fucosyl LacNAc as the acceptor. […] Its elution position, which is slightly later than BSA, run separately on the same column, indicates its molecular weight as <67,000 daltons. […] The enzyme has been purified 66 fold over the soluble extract with a recovery of 6.2%. The enzyme at this stage lost its activity either kept frozen at -20° C. or left at 4° C. for more than a week. However, the enzyme at the end of the previous step was fairly stable for at least two months at 4° C. So this preparation of enzyme was used in acceptor ability comparison studies.
When α1,3-fucosyltransferase activity of the partially purified enzyme preparation from the soluble portion of ovarian tumor was measured and compared with the activity of other acceptors, the following results were obtained. 2'-methyl LacNAc, LacNAc and Galβ1, 3GlcNAc were respectively 100.0%, 60.6% and 565.5% active, indicating the presence of both α1,3 and α1,4 fucosyltransferase activities in this preparation.

Incorporation of [14C] Fucose (CPM) into the Acceptor (0.30 mM) ([1]; Normal Serum) | Incorporation of [14C] Fucose (CPM) into the Acceptor (0.30 mM) ([1]; Ovarian Cancer Serum 1) | percentage of the ratio between the CPM obtained for cancer serum and normal serum ([1]; Ovarian Cancer Serum 1) | Incorporation of [14C] Fucose (CPM) into the Acceptor (0.30 mM) ([1]; Ovarian Cancer Serum 2) | percentage of the ratio between the CPM obtained for cancer serum and normal serum ([1]; Ovarian Cancer Serum 2) | Incorporation of [14C] Fucose (CPM) into the Acceptor (0.30 mM) ([1]; Ovarian Cancer Serum 3) | percentage of the ratio between the CPM obtained for cancer serum and normal serum ([1]; Ovarian Cancer Serum 3) | Incorporation of [14C] Fucose (CPM) into the Acceptor (0.30 mM) ([1]; Ovarian Cancer Serum 4) | percentage of the ratio between the CPM obtained for cancer serum and normal serum ([1]; Ovarian Cancer Serum 4) | Incorporation of [14C] Fucose (CPM) into the Acceptor (0.30 mM) ([1]; Ovarian Cancer Serum 5) | percentage of the ratio between the CPM obtained for cancer serum and normal serum ([1]; Ovarian Cancer Serum 5) | Incorporation of [14C] Fucose (CPM) into the Acceptor (0.30 mM) ([1]; Ovarian Cancer Serum 6) | percentage of the ratio between the CPM obtained for cancer serum and normal serum ([1]; Ovarian Cancer Serum 6) | α1,3 fucosyltransferase activity of the cancer sera as compared to the normal serum [1] | Relative Percent ([2]; 2'-methyl LacNAc = 100) | [14C] Fucose Incorporated (CPM) [2] | further results | Structure (SMILES)
397 CPM | 1325 CPM | 334% | 1724 CPM | 434% | 1359 CPM | 342% | 1347 CPM | 339% | 699 CPM | 176% | 975 CPM | 246% | 176%-434% | 100% | 7392 CPM |  | CO[C@H]1[C@H](O[C@H]2[C@H](O)[C@@H](NC(C)=O)C(O)O[C@@H]2CO)O[C@H](CO)[C@H](O)[C@@H]1O (stereo partly drawn) [2'-methyl LacNAc]
1543 CPM | 7310 CPM | 474% | 9816 CPM | 636% | 5261 CPM | 341% | 5480 CPM | 355% | 3088 CPM | 200% | 5483 CPM | 355% | 200%-636% | 447.1% | 33049 CPM | Ratio B/A (CPM into 3'-Sulfo LacNAc / CPM into 2'-Methyl LacNAc) ([1]; Normal Serum): 3.89; Ratio B/A (CPM into 3'-Sulfo LacNAc / CPM into 2'-Methyl LacNAc) ([1]; Ovarian Cancer Serum 1): 5.52; Ratio B/A (CPM into 3'-Sulfo LacNAc / CPM into 2'-Methyl LacNAc) ([1]; Ovarian Cancer Serum 2): 6.69; Ratio B/A (CPM into 3'-Sulfo LacNAc / CPM into 2'-Methyl LacNAc) ([1]; Ovarian Cancer Serum 3): 3.87; Ratio B/A (CPM into 3'-Sulfo LacNAc / CPM into 2'-Methyl LacNAc) ([1]; Ovarian Cancer Serum 4): 4.06; Ratio B/A (CPM into 3'-Sulfo LacNAc / CPM into 2'-Methyl LacNAc) ([1]; Ovarian Cancer Serum 5): 4.42; Ratio B/A (CPM into 3'-Sulfo LacNAc / CPM into 2'-Methyl LacNAc) ([1]; Ovarian Cancer Serum 6): 5.62; sensitivity / [14C] fucose incorporation relative to 2'-methyl LacNAc ([1]; blood sera, acceptors 0.3 mM): 3 to 5 fold and 4-5 fold; Relative Percent ([2]; 2'-methyl LacNAc = 100, listed as 3'-Sulfo LacNAc): 447%; Relative Percent ([2]; 2'-methyl LacNAc = 100, listed as 3'-sulfo LacNAc): 447% and 447.1% | CC(=O)N[C@H]1C(O)O[C@H](CO)[C@@H](O[C@@H]2O[C@H](CO)[C@H](O)[C@H](OS(=O)(=O)O)[C@H]2O)[C@@H]1O (stereo partly drawn) [3'-Sulfo-LacNAc, SODIUM β-D-GALACTOPYRANOSYL 3-SULFATE-(1→4)-2-ACETAMIDO-2-DEOXY-D-GLUCOPYRANOSE]
